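Results reflect a 48-hour exposure of cells in 96-well plates to compound at five concentrations. Abbreviation: GI50, concentration required for 50% inhibition of growth.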 The source made the active and inactive calls. Rule as the data show it: active = GI50 up to about 1.1 µM and inactive = higher.
Legend:
Assay in all cases: NCI anticancer screen, dose series, 48 h
UACC-62 = test system: UACC-62
KM-20L2 = test system: KM-20L2
SNB-78 = test system: SNB-78
OVCAR-5 = test system: OVCAR-5
MOLT-4 = test system: MOLT-4
ACHN = test system: ACHN
CAKI-1 = test system: CAKI-1
NCI-H522 = test system: NCI-H522
NCI-H460 = test system: NCI-H460
OVCAR-3 = test system: OVCAR-3
OVCAR-8 = test system: OVCAR-8
786-0 = test system: 786-0
COLO 205 = test system: COLO 205
Malme-3M = test system: Malme-3M
SN12C = test system: SN12C
SNB-75 = test system: SNB-75
RPMI-8226 = test system: RPMI-8226
HOP-92 = test system: HOP-92
HCC 2998 = test system: HCC 2998
SNB-19 = test system: SNB-19
HT-29 = test system: HT-29
EKVX = test system: EKVX
SF-539 = test system: SF-539
DMS-114 = test system: DMS-114
TK-10 = test system: TK-10
HOP-18 = test system: HOP-18
KM12 = test system: KM12
HCT-15 = test system: HCT-15
SK-MEL-2 = test system: SK-MEL-2
CCRF-CEM = test system: CCRF-CEM
A498 = test system: A498
K562 = test system: K562
UO-31 = test system: UO-31
SF-268 = test system: SF-268
DLD-1 = test system: DLD-1
M19-MEL = test system: M19-MEL
HOP-62 = test system: HOP-62
LOX IMVI = test system: LOX IMVI
SW-620 = test system: SW-620
HL-60 = test system: HL-60
U-251 = test system: U-251
IGROV-1 = test system: IGROV-1
SK-MEL-5 = test system: SK-MEL-5
SF-295 = test system: SF-295
SK-OV-3 = test system: SK-OV-3
DMS-273 = test system: DMS-273
SK-MEL-28 = test system: SK-MEL-28
NCI-H23 = test system: NCI-H23
RXF 393 = test system: RXF 393
A549 = test system: A549
UACC-257 = test system: UACC-257
SR = test system: SR
OVCAR-4 = test system: OVCAR-4
M14 = test system: M14
NCI-H226 = test system: NCI-H226
LXFL 529 = test system: LXFL 529
HCT-116 = test system: HCT-116

## COc1cc(/C=C/C(=O)c2sc(Nc3ccccc3)nc2C)ccc1O
UACC-62
  GI50: 82.8 µM (inactive)
KM-20L2
  GI50: > 100 µM (inactive)
SNB-78
  GI50: > 100 µM (inactive)
OVCAR-5
  GI50: > 100 µM (inactive)
MOLT-4
  GI50: 46 µM (inactive)
ACHN
  GI50: 50.5 µM (inactive)
CAKI-1
  GI50: 42.9 µM (inactive)
NCI-H522
  GI50: 42.4 µM (inactive)
NCI-H460
  GI50: > 100 µM (inactive)
OVCAR-3
  GI50: 33.5 µM (inactive)
OVCAR-8
  GI50: 96.8 µM (inactive)
786-0
  GI50: > 100 µM (inactive)
COLO 205
  GI50: > 100 µM (inactive)
Malme-3M
  GI50: > 100 µM (inactive)
SN12C
  GI50: 59.6 µM (inactive)
SNB-75
  GI50: 23.5 µM (inactive)
RPMI-8226
  GI50: 83.2 µM (inactive)
HOP-92
  GI50: 35.6 µM (inactive)
HCC 2998
  GI50: > 100 µM (inactive)
SNB-19
  GI50: > 100 µM (inactive)
HT-29
  GI50: 97.9 µM (inactive)
EKVX
  GI50: 19.8 µM (inactive)
SF-539
  GI50: > 100 µM (inactive)
DMS-114
  GI50: 44.6 µM (inactive)
TK-10
  GI50: > 100 µM (inactive)
HOP-18
  GI50: > 100 µM (inactive)
KM12
  GI50: > 100 µM (inactive)
HCT-15
  GI50: 84.1 µM
SK-MEL-2
  GI50: > 100 µM (inactive)
CCRF-CEM
  GI50: 88.5 µM (inactive)
A498
  GI50: > 100 µM (inactive)
K562
  GI50: 56.4 µM (inactive)
UO-31
  GI50: 43.6 µM (inactive)
SF-268
  GI50: 49.2 µM (inactive)
DLD-1
  GI50: 37.5 µM (inactive)
M19-MEL
  GI50: > 100 µM (inactive)
HOP-62
  GI50: 40.7 µM (inactive)
LOX IMVI
  GI50: 48.5 µM (inactive)
SW-620
  GI50: > 100 µM (inactive)
HL-60
  GI50: 44.2 µM (inactive)
U-251
  GI50: > 100 µM (inactive)
IGROV-1
  GI50: > 100 µM (inactive)
SK-MEL-5
  GI50: 38.4 µM (inactive)
SF-295
  GI50: 38.2 µM (inactive)
SK-OV-3
  GI50: > 100 µM (inactive)
DMS-273
  GI50: > 100 µM (inactive)
SK-MEL-28
  GI50: > 100 µM (inactive)
NCI-H23
  GI50: > 100 µM (inactive)
RXF 393
  GI50: 51.9 µM (inactive)
A549
  GI50: 71.8 µM (inactive)
UACC-257
  GI50: > 100 µM (inactive)

## COc1ccc(C2S/C(=C\c3cccc([N+](=O)[O-])c3)C(=O)N2NC(=O)Cc2ccccc2)cc1 (configuration not stated)
SR
  GI50: > 100 µM (inactive)
UACC-62
  GI50: > 100 µM (inactive)
OVCAR-5
  GI50: > 100 µM (inactive)
MOLT-4
  GI50: > 100 µM (inactive)
ACHN
  GI50: > 100 µM (inactive)
CAKI-1
  GI50: > 100 µM (inactive)
NCI-H522
  GI50: > 100 µM (inactive)
NCI-H460
  GI50: > 100 µM (inactive)
OVCAR-8
  GI50: > 100 µM (inactive)
OVCAR-4
  GI50: > 100 µM (inactive)
786-0
  GI50: > 100 µM (inactive)
COLO 205
  GI50: > 100 µM (inactive)
Malme-3M
  GI50: > 100 µM (inactive)
SN12C
  GI50: > 100 µM (inactive)
M14
  GI50: > 100 µM (inactive)
SNB-75
  GI50: > 100 µM (inactive)
RPMI-8226
  GI50: > 100 µM (inactive)
HOP-92
  GI50: > 100 µM (inactive)
HT-29
  GI50: > 100 µM (inactive)
SF-539
  GI50: > 100 µM (inactive)
DMS-114
  GI50: > 100 µM (inactive)
TK-10
  GI50: > 100 µM (inactive)
HOP-18
  GI50: > 100 µM (inactive)
NCI-H226
  GI50: > 100 µM (inactive)
KM12
  GI50: > 100 µM (inactive)
HCT-15
  GI50: > 100 µM
SK-MEL-2
  GI50: > 100 µM (inactive)
CCRF-CEM
  GI50: > 100 µM (inactive)
A498
  GI50: > 100 µM (inactive)
K562
  GI50: > 100 µM (inactive)
UO-31
  GI50: > 100 µM (inactive)
SF-268
  GI50: > 100 µM (inactive)
DLD-1
  GI50: > 100 µM (inactive)
M19-MEL
  GI50: > 100 µM (inactive)
LXFL 529
  GI50: > 100 µM (inactive)
HOP-62
  GI50: > 100 µM (inactive)
LOX IMVI
  GI50: > 100 µM (inactive)
SW-620
  GI50: > 100 µM (inactive)
HL-60
  GI50: > 100 µM (inactive)
U-251
  GI50: > 100 µM (inactive)
IGROV-1
  GI50: > 100 µM (inactive)
SK-MEL-5
  GI50: > 100 µM (inactive)
SF-295
  GI50: > 100 µM (inactive)
SK-OV-3
  GI50: > 100 µM (inactive)
DMS-273
  GI50: > 100 µM (inactive)
SK-MEL-28
  GI50: > 100 µM (inactive)
NCI-H23
  GI50: > 100 µM (inactive)
HCT-116
  GI50: > 100 µM (inactive)
RXF 393
  GI50: > 100 µM (inactive)
A549
  GI50: > 100 µM (inactive)
UACC-257
  GI50: > 100 µM (inactive)

From ChEMBL document CHEMBL1201862, “PubChem BioAssay data set” (2004)
